Test results taken from patent US20260242398A1, “BENZOPYRIMIDIN-4(3H)-ONES AS PI3K INHIBITORS” (OnKure, Inc., priority 2022, published 2026).
Where two headings read alike, the source gives them in different places.

How the values were obtained:
Type in all cases: cell-based
[1] = system: phosphorylation of AKT (pAKT) in T47D cells expressing mutant PI3Ka (H1047R); assay: In vitro cell pAKT (Ser473) HTRF, T47D cells
Procedure: (§1) In Vitro Cell pAKT: Determination of IC50 Values for Inhibition of Phosphorylation of AKT (pAKT) in T47D Cells Expressing Mutant PI3Ka (H1047R) Mutation and SKBR3 Cells Express WT PI3Ka.
(§2) T47D or SKBR3 cells were trypsinized, resuspended in culture media and seeded onto assay ready plates. T47D culture media consisted of RPMI, 10% FBS and Insulin (0.2 units/mL). SKBR3 culture media consisted of McCoy's 5a and 10% FBS. Cells were seeded at a density of 5000 cells/well and dispensed in 12.5 uL onto 384 well assay ready plates (Perkin Elmer, 6008238)). Assay ready plates had previously been stamped with 10-point dilutions of compounds of interest, as well as controls. The Echo655 is used to stamp plates at 12.5 nL of compound or DMSO. Cells were grown for 6 hour at 37° Celsius and 5% CO2. After 6 hour, 4 uL of Lysis buffer reagent was added to the plate, which was then centrifuged for 1 minute at 1000 rpm. Then the plate was incubated at room temperature for 30 minutes. After 30 minutes, 4 uL of antibody mix containing Eu Cryptate, d2 Cryptate, and detection buffer, was added to the plate. The plate was centrifuged for 1 minute at 1000 rpm and then incubated overnight at room temperature. The plate was read on an Envision plate reader using the HTRF protocol. The percentage of inhibition of AKT phosphorylation was calculated using the following formula: % Inhibition=100×(pAKTHC−pAKTSample)/(pAKTHC−pAKTLC)), where pAKTHC is obtained from cells treated with 0.1% DMSO only; pAKTLC is obtained from cells treated with 10 uM Alpelisib. The IC50 (concentration achieving 50% inhibition of pAKT) is calculated by fitting the Curve using XWfit (v5.3.1.3), equation 201: Y=Bottom+(Top−Bottom)/(1+10^((Log IC50−X)*HillSlope)).

[2] = system: SKBR3 cells express WT PI3Ka; assay: In vitro cell proliferation (CellTiter-Glo, 72 hours), SKBR3 cells; conditions: inhibition of proliferation
Procedure: (§3) In Vitro Cell Proliferation: Determination of EC50 Values for Inhibition of Proliferation in T47D Cells Expressing Mutant PI3Ka (H1047R) Mutation and SKBR3 Cells Express WT PI3Ka.
(§4) T47D or SKBR3 cells were trypsinized, resuspended in culture media and seeded onto assay ready plates. T47D culture media consisted of RPMI, 10% FBS and Insulin (0.2 units/mL). SKBR3 culture media consisted of McCoys 5a and 10% FBS. Cells were seeded at a density of 1,500 cells/well and dispensed in 50 uL onto 384 well assay ready plates (Corning, 89089-790). Assay ready plates had previously been stamped with 10-point dilutions of compounds of interest, as well as controls. The Echo655 is used to stamp plates at 40 nL of compound or DMSO. Cells were grown for 72 hours at 37° Celsius and 5% CO2. After 72 hours, cells were equilibrated at room temperature for 15 minutes. 30 uL of CellTiter-Glo reagent is added to the plate, which is then shaken for 30 minutes at temperature at 300-500 rpm. Cells are then read on an Envision plate reader. The percentage of inhibition of proliferation was calculated using the following formula: % Inhibition=100×(LumD−LumSample)/(LumD−LumInh), where D is obtained from cells treated with 0.1% DMSO only; Inh is obtained from cells treated with 10 uM Alpelisib. The effective concentration achieving 50% inhibition of proliferation (EC50) is calculated by fitting the Curve using XWfit (v5.3.1.3), equation 201: Y=Bottom+(Top−Bottom)/(1+10^((Log EC50−X)*HillSlope)).

[3] = system: phosphorylation of AKT (pAKT) in SKBR3 cells express WT PI3Ka; assay: In vitro cell pAKT (Ser473) HTRF, SKBR3 cells; conditions: inhibition of pAKT
Procedure: as §1, §2

[4] = system: T47D cells expressing mutant PI3Ka (H1047R); assay: In vitro cell proliferation (CellTiter-Glo, 72 hours), T47D cells; conditions: inhibition of proliferation, read-out: Avg T-47D EC50
Procedure: as §3, §4

[5] = inhibition of pAKT, 6 hour, read-out: Avg T-47D IC50

SMILES	EC50 [2]	IC50 ([3]; 6 hour)	EC50 [4]	IC50 [1, 5]	EC50 ([2]; Homo sapiens, SK-BR-3, 72 h)	IC50 ([3]; Homo sapiens, SK-BR-3, 6 h)	IC50 ([1]; read-out: Avg T-47D IC50, inhibition of pAKT, 6 hour)
Cc1cc(C(C)Nc2ccccc2C(=O)O)c2nc(N3CC[Si](C)(C)CC3)n(C)c(=O)c2c1 (single isomer, unassigned) [Example 2, 2-((1-(2-(4,4-dimethyl-1,4-azasilinan-1-yl)-3,6-dimethyl-4-oxo-3,4-dihydroquinazolin-8-yl)ethyl)amino)benzoic acid]	2 to 15 µM	> 15 µM	2 to 15 µM	–	–	–	> 15 µM
Cc1cc(C(C)Nc2ccc(F)cc2C(=O)O)c2nc(N3CCC(C)(C)CC3)n(C)c(=O)c2c1 (single isomer, unassigned) [Example 30, 2-((1-(2-(4,4-dimethylpiperidin-1-yl)-3,6-dimethyl-4-oxo-3,4-dihydroquinazolin-8-yl)ethyl)amino)-5-fluorobenzoic acid]	2 to 15 µM	> 15 µM	2 to 15 µM	> 15 µM	–	–	–
Cc1cc2c(=O)n(C)c(N3CCN(CC(F)(F)F)CC3)nc2c(C(C)Nc2ccccc2C(=O)O)c1F (single isomer, unassigned) [Example 21, 2-((1-(7-fluoro-3,6-dimethyl-4-oxo-2-(4-(2,2,2-trifluoroethyl)piperazin-1-yl)-3,4-dihydroquinazolin-8-yl)ethyl)amino)benzoic acid]	> 15 µM	> 15 µM	> 15 µM	> 15 µM	–	–	–
CC(Nc1ccccc1C(=O)O)c1cc(C(F)(F)F)cc2c(=O)n(C)c(N3CCN(CC(F)(F)F)CC3)nc12 (single isomer, unassigned) [Example 38, 2-((1-(3-methyl-4-oxo-2-(4-(2,2,2-trifluoroethyl)piperazin-1-yl)-6-(trifluoromethyl)-3,4-dihydroquinazolin-8-yl)ethyl)amino)benzoic acid]	2 to 15 µM	> 15 µM	> 15 µM	> 15 µM	–	–	–
CC(Nc1ccc(F)cc1C(=O)O)c1cc(Cl)cc2c(=O)n(C)c(N3CCN(CC(F)(F)F)CC3)nc12 (single isomer, unassigned) [Example 25, 2-((1-(6-chloro-3-methyl-4-oxo-2-(4-(2,2,2-trifluoroethyl)piperazin-1-yl)-3,4-dihydroquinazolin-8-yl)ethyl)amino)-5-fluorobenzoic acid]	2 to 15 µM	> 15 µM	2 to 15 µM	> 15 µM	–	–	–
CC(Nc1ccccc1C(=O)O)c1cc(Cl)cc2c(=O)n(C)c(N3CCN(CC(F)(F)F)CC3)nc12 (single isomer, unassigned) [Example 27, 2-((1-(6-chloro-3-methyl-4-oxo-2-(4-(2,2,2-trifluoroethyl)piperazin-1-yl)-3,4-dihydroquinazolin-8-yl)ethyl)amino)benzoic acid]	> 15 µM	> 15 µM	> 15 µM	> 15 µM	–	–	–
Cc1cc(C(C)Nc2ccccc2C(=O)O)c2nc(OCC(C)C)n(C)c(=O)c2c1 (single isomer, unassigned) [Example 12, 2-((1-(2-isobutoxy-3,6-dimethyl-4-oxo-3,4-dihydroquinazolin-8-yl)ethyl)amino)benzoic acid]	> 15 µM	> 15 µM	2 to 15 µM	> 15 µM	–	–	–

The next lines start with results.

EC50 [2]	IC50 ([3]; 6 hour)	EC50 [4]	IC50 [1, 5]	EC50 ([2]; Homo sapiens, SK-BR-3, 72 h)	IC50 ([3]; Homo sapiens, SK-BR-3, 6 h)	SMILES	IC50 ([1]; read-out: Avg T-47D IC50, inhibition of pAKT, 6 hour)
> 15 µM	> 15 µM	2 to 15 µM	> 15 µM	–	–	Cc1cc(C(C)Nc2ccccc2C(=O)O)c2nc(N3CCCC(C)(C)C3)n(C)c(=O)c2c1 (single isomer, unassigned) [Example 4, 2-((1-(2-(3,3-dimethylpiperidin-1-yl)-3,6-dimethyl-4-oxo-3,4-dihydroquinazolin-8-yl)ethyl)amino)benzoic acid]	–
> 15 µM	> 15 µM	> 15 µM	> 15 µM	–	–	Cc1cc(C(C)Nc2ccccc2C(=O)O)c2nc(N3Cc4ccc(C#N)cc4C3)n(C)c(=O)c2c1 (single isomer, unassigned) [Example 18, 2-((1-(2-(5-cyanoisoindolin-2-yl)-3,6-dimethyl-4-oxo-3,4-dihydroquinazolin-8-yl)ethyl)amino)benzoic acid]	–
> 15 µM	> 15 µM	2 to 15 µM	1 to 5 µM	–	–	Cc1cc(C(C)Nc2ccccc2C(=O)O)c2nc(SCC(C)C)n(C)c(=O)c2c1 (single isomer, unassigned) [Example 40, 2-((1-(2-(isobutylthio)-3,6-dimethyl-4-oxo-3,4-dihydroquinazolin-8-yl)ethyl)amino)benzoic acid]	–
–	–	> 15 µM	> 15 µM	> 15 µM	> 15 µM	Cc1cc(C(C)Nc2ccccc2C(=O)O)c2nc(N3CC4(CCCCC4)C3)n(C)c(=O)c2c1 (single isomer, unassigned) [Example 6, 2-((1-(3,6-dimethyl-4-oxo-2-(2-azaspiro[3.5]nonan-2-yl)-3,4-dihydroquinazolin-8-yl)ethyl)amino)benzoic acid]	–
> 15 µM	> 15 µM	2 to 15 µM	> 15 µM	–	–	Cc1cc(C(C)Nc2ccccc2C(=O)O)c2nc(N3CCC(C)(C)CC3)n(CF)c(=O)c2c1 (single isomer, unassigned) [Example 52, 2-((1-(2-(4,4-dimethylpiperidin-1-yl)-3-(fluoromethyl)-6-methyl-4-oxo-3,4-dihydroquinazolin-8-yl)ethyl)amino)benzoic acid]	–
2 to 15 µM	> 15 µM	2 to 15 µM	> 15 µM	–	–	CC(Nc1ccccc1C(=O)O)c1cc(Cl)cc2c(=O)n(C)c(N3CCC(C)(C)CC3)nc12 (single isomer, unassigned) [Example 23, 2-((1-(6-chloro-2-(4,4-dimethylpiperidin-1-yl)-3-methyl-4-oxo-3,4-dihydroquinazolin-8-yl)ethyl)amino)benzoic acid]	–
> 15 µM	–	0.5 to 2 µM	0.001 to 1 µM	–	> 15 µM	CC(Nc1ccccc1C(=O)O)c1cc(Cl)cc2c(=O)n(C)c(N3CCC(C)(C)CC3)nc12 (single isomer, unassigned) [Example 22, 2-((1-(6-chloro-2-(4,4-dimethylpiperidin-1-yl)-3-methyl-4-oxo-3,4-dihydroquinazolin-8-yl)ethyl)amino)benzoic acid]	–
2 to 15 µM	> 15 µM	2 to 15 µM	> 15 µM	–	–	Cc1cc(C(C)Nc2ccccc2C(=O)O)c2nc(SCc3ccc(Cl)c(OC(F)(F)F)c3)n(C)c(=O)c2c1 (single isomer, unassigned) [Example 32, 2-((1-(2-((4-chloro-3-(trifluoromethoxy)benzyl)thio)-3,6-dimethyl-4-oxo-3,4-dihydroquinazolin-8-yl)ethyl)amino)benzoic acid]	–
2 to 15 µM	> 15 µM	0.001 to 0.5 µM	1 to 5 µM	–	–	Cc1cc(C(C)Nc2ccc(Cl)cc2C(=O)O)c2nc(N3Cc4ccc(F)cc4C3)n(C)c(=O)c2c1 (single isomer, unassigned) [Example 14, 5-chloro-2-((1-(2-(5-fluoroisoindolin-2-yl)-3,6-dimethyl-4-oxo-3,4-dihydroquinazolin-8-yl)ethyl)amino)benzoic acid]	–
> 15 µM	> 15 µM	2 to 15 µM	1 to 5 µM	–	–	Cc1cc(C(C)Nc2ccccc2C(=O)O)c2nc(N3CC4(CCCCC4)C3)n(C)c(=O)c2c1 (single isomer, unassigned) [Example 5, 2-((1-(3,6-dimethyl-4-oxo-2-(2-azaspiro[3.5]nonan-2-yl)-3,4-dihydroquinazolin-8-yl)ethyl)amino)benzoic acid]	–
